Results on 41 molecules are retold here after patent US20170320870A1 (Medical Research Council Technology, priority 2009, published 2017).

The target in this assay is T1, LRRK2 wild type (recombinant human, catalytic domain amino acids 970-2527, GST-tagged) (Homo sapiens, UniProt Q5S007).
T1 construct: The wild type used was recombinant human, catalytic domain (amino acids 970-2527) GST-tagged, expressed in insect cells; GST; purchased Invitrogen Corporation PV4873; host or cells: insect cells
T1 sequence (Q5S007 970-2527): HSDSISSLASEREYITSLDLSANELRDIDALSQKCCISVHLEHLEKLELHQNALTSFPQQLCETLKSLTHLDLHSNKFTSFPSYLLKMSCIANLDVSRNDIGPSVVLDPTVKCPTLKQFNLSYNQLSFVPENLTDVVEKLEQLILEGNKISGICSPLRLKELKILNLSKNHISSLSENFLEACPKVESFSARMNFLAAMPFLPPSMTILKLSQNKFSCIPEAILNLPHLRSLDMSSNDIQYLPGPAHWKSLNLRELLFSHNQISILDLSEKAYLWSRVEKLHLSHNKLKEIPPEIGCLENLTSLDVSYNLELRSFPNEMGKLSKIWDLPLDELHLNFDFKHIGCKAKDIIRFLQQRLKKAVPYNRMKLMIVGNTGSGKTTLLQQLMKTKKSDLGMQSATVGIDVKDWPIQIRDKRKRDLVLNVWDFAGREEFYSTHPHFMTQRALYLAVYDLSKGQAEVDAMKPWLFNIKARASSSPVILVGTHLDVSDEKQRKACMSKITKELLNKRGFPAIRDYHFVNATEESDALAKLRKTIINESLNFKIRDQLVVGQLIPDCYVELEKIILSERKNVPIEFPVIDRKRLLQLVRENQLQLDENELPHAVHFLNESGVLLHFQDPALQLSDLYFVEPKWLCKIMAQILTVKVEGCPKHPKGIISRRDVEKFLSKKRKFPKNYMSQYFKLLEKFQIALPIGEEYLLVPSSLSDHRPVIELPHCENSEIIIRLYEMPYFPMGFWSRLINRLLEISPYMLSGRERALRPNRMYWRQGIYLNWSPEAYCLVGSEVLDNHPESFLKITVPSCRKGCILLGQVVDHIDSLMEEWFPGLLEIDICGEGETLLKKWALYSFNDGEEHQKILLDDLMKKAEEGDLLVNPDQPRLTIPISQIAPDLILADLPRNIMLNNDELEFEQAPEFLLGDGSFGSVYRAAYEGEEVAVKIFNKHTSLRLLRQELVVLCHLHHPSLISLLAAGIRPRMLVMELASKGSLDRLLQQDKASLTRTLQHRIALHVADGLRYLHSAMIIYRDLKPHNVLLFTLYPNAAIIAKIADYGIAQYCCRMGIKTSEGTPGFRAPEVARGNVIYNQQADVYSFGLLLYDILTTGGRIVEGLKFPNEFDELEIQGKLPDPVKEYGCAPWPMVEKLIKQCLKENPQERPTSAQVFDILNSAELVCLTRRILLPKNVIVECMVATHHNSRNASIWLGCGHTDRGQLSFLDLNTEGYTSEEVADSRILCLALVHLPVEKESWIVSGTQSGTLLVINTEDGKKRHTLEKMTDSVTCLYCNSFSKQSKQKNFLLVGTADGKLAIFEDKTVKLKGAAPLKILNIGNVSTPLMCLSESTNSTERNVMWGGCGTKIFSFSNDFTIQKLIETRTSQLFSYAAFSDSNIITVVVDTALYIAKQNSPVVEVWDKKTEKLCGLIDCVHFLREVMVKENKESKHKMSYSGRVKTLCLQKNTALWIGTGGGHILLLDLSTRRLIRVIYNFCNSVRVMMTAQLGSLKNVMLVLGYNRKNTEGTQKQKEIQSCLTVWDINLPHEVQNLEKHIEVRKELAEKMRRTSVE
The assay can be described thus: LRRK2 wild type protein kinase assay ([γ-33P] ATP, peptide substrate […]), IC50. As to conditions: LRRK2 (variant not given); read-out: Potency score, LRRK2 IC50. It counts as biochemical. The essentials:
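IC50 derived from duplicate 10-point titrations, with 33P incorporation into a 100 μM peptide counted after P81 filter capture. Roughly 5 nM unactivated kinase reacted with Mg/[γ-33P]ATP for 180 min at room temperature (~21 °C), pH 7.5 Tris buffer containing 10 mM MgCl2, EGTA and DTT; acid-quenched.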
For orientation: IC50 means the midpoint of a concentration-inhibition curve. Regarding `Cc1n[nH]c2ccnc(Nc3cccc(C#N)c3)c12` [Example 347, 3-(3-Methyl-1H-pyrazolo[4,3-c]pyridin-4-ylamino)-benzonitrile], the IC50 was 100 to 1000 nM.

With `O=C(CCc1n[nH]c2ccnc(NC3CCCCC3)c12)N1CCCC(c2ccccc2)C1` (centres unmarked) [Example 170, 3-(4-Cyclohexylamino-1H-pyrazolo[4,3-c]pyridin-3-yl)-1-(3-phenyl-piperidin-1-yl)-propan-1-one], the IC50 is 100 to 1000 nM.

Consider `Cc1ccc(Nc2nccc3[nH]nc(C)c23)cc1` [Example 318, (4-Methyl-phenyl)-(3-methyl-1H-pyrazolo[4,3-c]pyridin-4-yl)-amine], for which the IC50 was less than 100 nM. As for `Cc1n[nH]c2ccnc(O[C@@H]3CCC[C@@H]3C)c12` (racemic) [Example 293, Cis-3-Methyl-4-(2-methyl-cyclopentyl-oxy)-1H-pyrazolo [4,3-c]pyridine], the IC50 fell in the range of 100 to 1000 nM. As for `c1ccc(-c2nnc(CCc3n[nH]c4ccnc(NC5CCCCC5)c34)o2)cc1` [Example 216, Cyclohexyl-{3-[2-(5-phenyl-1,3,4-oxadiazol-2-yl)-ethyl]-1H-pyrazolo[4,3-c]pyridin-4-yl}-amine], the figure is 100 to 1000 nM. The value for `Cc1n[nH]c2ccnc(Nc3cccc(N4CCOCC4)c3)c12` [Example 80, (3-Methyl-1H-pyrazolo[4,3-c]pyridin-4-yl)-(3-morpholin-4-yl-phenyl)-aniline] was 1000 to 10000 nM. In the case of `CC(=O)Nc1cccc(CCc2n[nH]c3ccnc(NC4CCCCC4)c23)c1` [Example 222, N-{3-[2-(4-Cyclohexylamino-1H-pyrazolo[4,3-c]pyridin-3-yl)-ethyl]-phenyl}-acetamide], the IC50 was less than 100 nM. The value for `Fc1cc(-c2n[nH]c3ccnc(NC4CCCCC4)c23)cc(F)c1F` [Example 163, Cyclohexyl-[3-(3,4,5-trifluoro-phenyl)-1H-pyrazolo[4,3-c]pyridin-4-yl]-amine] was 1000 to 10000 nM; that for `Cc1n[nH]c2ccnc(N3CCN(c4cccc(Cl)c4)CC3)c12` [Example 7, 4-[4-(3-Chloro-phenyl)-piperazin-1-yl]-3-methyl-1H-pyrazolo[4,3-c]pyridine] was 1000 to 10000 nM; that for `CC(=O)NCCNc1nccc2[nH]nc(C)c12` [Example 302, N-[2-(3-Methyl-1H-pyrazolo[4,3-c]pyridin-4-ylamino)-ethyl]-acetamide] was 1000 to 10000 nM.

Consider `O=C(Nc1cccc(CCc2n[nH]c3ccnc(NC4CCCCC4)c23)c1)c1ccc(N2CCOCC2)cc1` [Example 227, N-{3-[2-(4-Cyclohexylamino-1H-pyrazolo[4,3-c]pyridin-3-yl)-ethyl]-phenyl}-4-morpholin-4-yl-benzamide], for which the IC50 is less than 100 nM.

In the case of `Cc1n[nH]c2ccnc(OC3CCN(C)CC3)c12` [Example 116, 3-Methyl-4-(1-methyl-piperidin-4-yloxy)-1H-pyrazolo[4,3-c] pyridine], the IC50 was in the range of 1000 to 10000 nM.

Regarding `COCCNC(=O)c1ccc(Nc2nccc3[nH]nc(C)c23)cc1` [Example 108, N-(2-Methoxy-ethyl)-4-(3-methyl-1H-pyrazolo [4,3-c]pyridin-4-ylamino)-benzamide], the IC50 is 1000 to 10000 nM. Take `O=C(COc1ccccc1)Nc1ccc(CCc2n[nH]c3ccnc(NC4CCCCC4)c23)cc1` [Example 273, N-{4-[2-(4-Cyclohexylamino-1H-pyrazolo[4,3-c]pyridin-3-yl)-ethyl]-phenyl}-2-phenoxy-acetamide]: the IC50 is less than 100 nM. As to `O=C(Nc1ccc(CCc2n[nH]c3ccnc(NC4CCCCC4)c23)cc1)c1ccc2nccnc2c1` [Example 270, Quinoxaline-6-carboxylic acid {4-[2-(4-cyclohexylamino-1H-pyrazolo[4,3-c]pyridin-3-yl)-ethyl]-phenyl}-amide], the 50% inhibitory concentration (IC50) is less than 100 nM. Regarding `Cc1n[nH]c2ccnc(Nc3ccc(C(N)=O)cc3)c12` [Example 83, 4-(3-Methyl-1H-pyrazolo[4,3-c]pyridin-4-ylamino)-benzamide], the IC50 was 100 to 1000 nM.

Take `Cc1n[nH]c2ccnc(Nc3ccccc3)c12` [Example 70, (3-Methyl-1H-pyrazolo[4,3-c]pyridin-4-yl)-phenyl-amine]: the IC50 is 100 to 1000 nM.

Turning to `Cc1ccc(-c2n[nH]c3ccnc(NC4CCCCC4)c23)cc1` [Example 148, Cyclohexyl-(3-p-tolyl-1H-pyrazolo[4,3-c]pyridin-4-yl)-amine], the IC50 is 100 to 1000 nM. Turning to `O=C(Nc1cccc(CCc2n[nH]c3ccnc(NC4CCCCC4)c23)c1)C1CCCC1` [Example 225, Cyclopentanecarboxylic acid {3-[2-(4-cyclohexylamino-1H-pyrazolo[4,3-c]pyridin-3-yl)-ethyl]-phenyl}-amide], the IC50 was less than 100 nM.

Take `CC1CCN(C(=O)c2ccc(CCc3n[nH]c4ccnc(NC5CCCCC5)c34)cc2)CC1` [Example 229, {4-[2-(4-Cyclohexylamino-1H-pyrazolo[4,3-c]pyridin-3-yl)-ethyl]-phenyl}-(4-methyl-piperidin-1-yl)-methanone]: the IC50 was less than 100 nM.

For the molecule `c1cc2[nH]nc(-c3ccc(N4CCOCC4)nc3)c2c(NC2CCCCC2)n1` [Example 154, Cyclohexyl-[3-(6-morpholin-4-yl-pyridin-3-yl)-1H-pyrazolo[4,3-c]pyridin-4-yl]-amine], the IC50 lay within 100 to 1000 nM. As for `CCOc1ccccc1CNc1nccc2[nH]nc(C)c12` [Example 340, (2-Ethoxy-benzyl)-(3-methyl-1H-pyrazolo[4,3-c]pyridin-4-yl)-amine], the figure is 1000 to 10000 nM; as for `FC(F)(F)Oc1ccccc1-c1n[nH]c2ccnc(NC3CCCCC3)c12` [Example 151, Cyclohexyl-[3-(2-trifluoromethoxy-phenyl)-1H-pyrazolo[4,3-c]pyridin-4-yl]-amine], 1000 to 10000 nM; as for `Cc1n[nH]c2ccnc(Nc3ccc4c(cnn4C)c3)c12` [Example 99, (1-Methyl-1H-indazol-5-yl)-(3-methyl-1H-pyrazolo[4,3-c]pyridin-4-yl)-amine], 100 to 1000 nM. As for `CCCNc1nccc2[nH]nc(C)c12` [Example 16, (3-Methyl-1H-pyrazolo[4,3-c]pyridin-4-yl)-propyl-amine], the IC50 was in the range of 100 to 1000 nM.

`Cc1n[nH]c2ccnc(OCC(C)C)c12` [Example 280, 4-Isobutoxy-3-methyl-1H-pyrazolo[4,3-c]pyridine]: the IC50 is less than 100 nM.

Take `Cc1nc2cc(Nc3nccc4[nH]nc(C)c34)ccc2s1` [Example 328, (2-Methyl-benzothiazol-5-yl)-(3-methyl-1H-pyrazolo[4,3-c]pyridin-4-yl)-amine]: the IC50 fell in the range of 1000 to 10000 nM. For `c1cc2[nH]nc(-c3cnc(N4CCOCC4)nc3)c2c(NC2CCCCC2)n1` [Example 160, Cyclohexyl-[3-(2-morpholin-4-yl-pyrimidin-5-yl)-1H-pyrazolo[4,3-c]pyridin-4-yl]-amine], the IC50 was 100 to 1000 nM. Turning to `CC(C)C(=O)Nc1ccc(CCc2n[nH]c3ccnc(NC4CCCCC4)c23)cc1` [Example 263, N-{4-[2-(4-Cyclohexylamino-1H-pyrazolo[4,3-c]pyridin-3-yl)-ethyl]-phenyl}-isobutyramide], the IC50 is 100 to 1000 nM. The value for `Cc1n[nH]c2ccnc(N3CCN(c4ccccn4)CC3)c12` [Example 9, 3-Methyl-4-(4-pyridin-2-yl-piperazin-1-yl)-1H-pyrazolo[4,3-c]pyridine] was 1000 to 10000 nM; that for `Cc1n[nH]c2ccnc(NCCc3ccccc3Cl)c12` [Example 330, [2-(2-Chloro-phenyl)-ethyl]-(3-methyl-1H-pyrazolo[4,3-c]pyridin-4-yl)-amine] was less than 100 nM. With `O=C(CCc1n[nH]c2ccnc(NC3CCCCC3)c12)N1CCCC(Oc2ccccc2)C1` (centres unmarked) [Example 238, 3-(4-Cyclohexylamino-1H-pyrazolo[4,3-c]pyridin-3-yl)-1-(3-phenoxy-piperidin-1-yl)-propan-1-one], the IC50 lay in the range of 100 to 1000 nM. Regarding `Cc1n[nH]c2ccnc(Nc3ccc(N4CCN(C)CC4)cc3)c12` [Example 86, [4-(4-Methyl-piperazin-1-yl)-phenyl]-(3-methyl-1H-pyrazolo[4,3-c]pyridin-4-yl)-amine], the IC50 lay in the range of 1000 to 10000 nM.

With `Cc1n[nH]c2ccnc(N[C@H](C)C3CCCCC3)c12` [Example 38, ((R)-1-Cyclohexyl-ethyl)-(3-methyl-1H-pyrazolo[4,3-c]pyridin-4-yl)-amine], the IC50 was 1000 to 10000 nM.

For the molecule `O=C(CCc1n[nH]c2ccnc(NC3CCCCC3)c12)N1CCCC(C(F)(F)F)C1` (centres unmarked) [Example 202, 3-(4-Cyclohexylamino-1H-pyrazolo[4,3-c]pyridin-3-yl)-1-(3-trifluoromethyl-piperidin-1-yl)-propan-1-one], the IC50 fell in the range of 100 to 1000 nM. As for `Fc1cc(C(F)(F)F)ccc1-c1n[nH]c2ccnc(NC3CCCCC3)c12` [Example 166, Cyclohexyl-[3-(2-fluoro-4-trifluoromethyl-phenyl)-1H-pyrazolo[4,3-c]pyridin-4-yl]-amine], the figure is 1000 to 10000 nM. With `Cc1n[nH]c2ccnc(NCCc3cccnc3)c12` [Example 351, (3-Methyl-1H-pyrazolo[4,3-c]pyridin-4-yl)-(2-pyridin-3-yl-ethyl)-amine], the IC50 is 100 to 1000 nM. As for `CC[C@H](C)COc1nccc2[nH]nc(C)c12` [Example 284, 3-Methyl-4-((S)-2-methyl-butoxy)-1H-pyrazolo[4,3-c]pyridine], the IC50 was less than 100 nM. On to `O=C(Nc1ccncc1)c1ccc(CCc2n[nH]c3ccnc(NC4CCCCC4)c23)cc1` [Example 256, 4-[2-(4-Cyclohexylamino-1H-pyrazolo[4,3-c]pyridin-3-yl)-ethyl]-N-pyridin-4-yl-benzamide], for which the IC50 is less than 100 nM. Regarding `COc1nccc2[nH]nc(CCC(=O)N3CCC[C@H](c4ccccc4)C3)c12` [Example 260, 3-(4-Methoxy-1H-pyrazolo[4,3-c]pyridin-3-yl)-1-((R)-3-phenyl-piperidin-1-yl)-propan-1-one], the concentration for half-maximal inhibition (IC50) is 100 to 1000 nM. As for `Fc1cccc(-c2n[nH]c3ccnc(NC4CCCCC4)c23)c1F` [Example 159], the IC50 fell in the range of 1000 to 10000 nM.
